Patent publication US20100138935A1, “Detection of cellular stress” (priority 2004, published 2010)

Assays:
HOZ mice [1] = assay: Plasma ALT as a marker of hepatotoxicity in HOZ mice; format: in vivo, mouse
Procedure: (§1) Terminal blood samples were taken by cardiac puncture into lithium/heparin-coated tubes for preparation of plasma. Tissues, as defined in each protocol, were routinely dissected as follows:
(§2) Following removal into tubes suitable for plasma preparation, venous blood samples were mixed on a roller for 10 minutes then cooled on ice. Red blood cells were removed by centrifugation at 2,000 rpm for 10 minutes at 8-10° C. The supernatant (plasma) was transferred to a second tube and stored at −70° C. until required for analysis.
(§3) Plasma samples were analysed for appropriate analytes on a Roche autoanalyser (Cobas Integra 400) according to the manufacturer's instructions. The routine markers measured included: (for liver damage) plasma alanine aminotransferase (ALT), aspartate aminotransferase (AST) and alkaline phosphatase (ALP) and (for kidney damage) plasma creatinine and blood urea nitrogen (BUN).
Two plasma enzyme markers, ALT and AST, were used as markers of hepatotoxicity in HOZ mice treated with cadmium chloride or sodium arsenite. The results of this analysis for HOZ mice treated with 10 mg/kg cadmium chloride are shown in Table 1 and for HOZ mice treated with 2-8 mg/kg cadmium chloride or 13 mg/kg sodium arsenite in Tables 2 and 3.

HOZ mice [2] = assay: Plasma AST as a marker of hepatotoxicity in HOZ mice; format: in vivo, mouse
Procedure: as §1, §2, §3
Two plasma enzyme markers, ALT and AST, were used as markers of hepatotoxicity in HOZ mice treated with cadmium chloride or sodium arsenite. […]

HO-1 mRNA = assay: RT-PCR assay of endogenous HO-1 mRNA in HOZ mouse tissue; format: in vivo
Procedure: Analysis of the expression of endogenous genes was carried out by RT-PCR using the ABI Prism 7000 system. For RT-PCR analysis, frozen tissue samples were homogenised using a Polytron PT-mr2100 homogeniser in 1 ml TRI reagent (Sigma). Total RNA for each sample was isolated according to the manufacturer's instructions and RNA pellets stored at −70° C. under 75% ethanol. Each of the RNA pellets was resuspended in RNAase/DNAase free dH2O and quantified using a Genequant RNA/DNA calculator (Amersham). First strand cDNA synthesis was performed for each sample using 2 μg of total RNA and the Protoscript First Strand cDNA Synthesis Kit (New England Biolabs) according to the manufacturer's protocol. Additional steps to degrade RNA following cDNA synthesis were performed. Each sample was diluted to 50 μl with RNAase/DNAase-free dH2O and stored at −20° C.
In order to measure variation in p21 or Haemoxygenase-1 (HO-1) expression it was necessary to include an internal control. Amplification of β-Actin cDNA provides a standard to control for variations on RNA content between samples. The final reactions therefore consisted of two separate reactions (target gene and β-Actin cDNA amplification) performed simultaneously in a single tube. The PCR conditions used were 10 minutes at 95° C. followed by 40 cycles of denaturing for 15 seconds at 95° C. and annealing/extending for 1 minute at 60° C. The primers and probe for the p21 and HO-1 amplification reactions were obtained from ABI (Assay-On-Demand kit). These methods have been pre-validated for the standard conditions used on the ABI Prism 7000 system.
The effects of cadmium chloride on endogenous HO-1 expression were determined by RT-PCR assay of HO-1 mRNA levels in liver and kidney tissue from HOZ mice. […] The bars show relative concentrations of HO-1 mRNA assayed by RT-PCR in brain, kidney and liver tissue of mice that had received 10 mg/kg cadmium chloride 24 hours earlier compared with mice that had received saline and untreated mice. […]

[3] = HOZ mouse, 10 mg/kg i.p., 24 hours
[4] = female, 8 mg/kg, after 24 hours
[5] = male, 8 mg/kg, 24 hours after treatment

[Cl][Cd][Cl] [Cadmium Chloride, cadmium chloride]
ALT (HOZ mice [1]; [3]): 1834.8 U/L
Plasma ALT (HOZ mice [1]; female, 1 mg/kg, 8 hours): 33.3 u/L
Plasma ALT (HOZ mice [1]; female, 1 mg/kg, 24 hours): 28.2 u/L
Plasma ALT (HOZ mice [1]; female, 2 mg/kg, 8 hours): 22.8 u/L
Plasma ALT (HOZ mice [1]; female, 2 mg/kg, 24 hours): 26.1 u/L
Plasma ALT (HOZ mice [1]; female, 4 mg/kg, 8 hours): 55.6 u/L
Plasma ALT (HOZ mice [1]; female, 4 mg/kg, 24 hours): 23.7 u/L
increase in plasma ALT (HOZ mice [1]; female, 4 mg/kg, after 8 hours): 2.4 fold
increase in ALT (HOZ mice [1]; female, 4 mg/kg, second statement, printed as after 8 hours): ≤ 2 fold
Plasma ALT (HOZ mice [1]; female, 8 mg/kg, 8 hours): 3930.6 u/L
Plasma ALT (HOZ mice [1]; female, 8 mg/kg, 24 hours): 7010.4 u/L
increase in plasma ALT (HOZ mice [1]; female, 8 mg/kg, after 8 hours): 170 fold
increase in plasma ALT (HOZ mice [1]; [4]): 275 fold
Plasma ALT (HOZ mice [1]; male, 1 mg/kg, 8 hours): 70.3 u/L
Plasma ALT (HOZ mice [1]; male, 1 mg/kg, 24 hours): 33.1 u/L
Plasma ALT (HOZ mice [1]; male, 2 mg/kg, 8 hours): 21.7 u/L
Plasma ALT (HOZ mice [1]; male, 2 mg/kg, 24 hours): 19.4 u/L
Plasma ALT (HOZ mice [1]; male, 4 mg/kg, 8 hours): 50.4 u/L
Plasma ALT (HOZ mice [1]; male, 4 mg/kg, 24 hours): 74.7 u/L
Plasma ALT (HOZ mice [1]; male, 8 mg/kg, 8 hours): 50.1 u/L
Plasma ALT (HOZ mice [1]; male, 8 mg/kg, 24 hours): 306.3 u/L
increase in ALT (HOZ mice [1]; [5]): 7.9 fold
increase in ALT and AST (HOZ mice [1]; male, all other doses and time points): ≤ 2 fold
AST (HOZ mice [2]; [3]): 4643.1 U/L
Plasma AST (HOZ mice [2]; female, 1 mg/kg, 8 hours): 87.6 u/L
Plasma AST (HOZ mice [2]; female, 1 mg/kg, 24 hours): 87.5 u/L
Plasma AST (HOZ mice [2]; female, 2 mg/kg, 8 hours): 80.4 u/L
Plasma AST (HOZ mice [2]; female, 2 mg/kg, 24 hours): 104.7 u/L
Plasma AST (HOZ mice [2]; female, 4 mg/kg, 8 hours): 108.5 u/L
Plasma AST (HOZ mice [2]; female, 4 mg/kg, 24 hours): 89.1 u/L
increase in plasma AST (HOZ mice [2]; female, 4 mg/kg, at either time point (8, 24 hours)): no increase in plasma AST was observed
Plasma AST (HOZ mice [2]; female, 8 mg/kg, 8 hours): 13425.6 u/L
Plasma AST (HOZ mice [2]; female, 8 mg/kg, 24 hours): 8097.6 u/L
increase in plasma AST (HOZ mice [2]; female, 8 mg/kg, after 8 hours): 237 fold
increase in plasma AST (HOZ mice [2]; [4]): 97 fold
Plasma AST (HOZ mice [2]; male, 1 mg/kg, 8 hours): 100.2 u/L
Plasma AST (HOZ mice [2]; male, 1 mg/kg, 24 hours): 63.1 u/L
Plasma AST (HOZ mice [2]; male, 2 mg/kg, 8 hours): 66.4 u/L
Plasma AST (HOZ mice [2]; male, 2 mg/kg, 24 hours): 56.4 u/L
Plasma AST (HOZ mice [2]; male, 4 mg/kg, 8 hours): 132.3 u/L
Plasma AST (HOZ mice [2]; male, 4 mg/kg, 24 hours): 123.0 u/L
Plasma AST (HOZ mice [2]; male, 8 mg/kg, 8 hours): 92.4 u/L
Plasma AST (HOZ mice [2]; male, 8 mg/kg, 24 hours): 353.8 u/L
increase in AST (HOZ mice [2]; [5]): 3.8 fold
HO-1 mRNA levels in kidney and liver compared to controls (HO-1 mRNA; 10 mg/kg, after 24 hours): very substantially elevated
HO-1 mRNA in liver versus dose (HO-1 mRNA; both sexes, 0-8 mg/kg, 8 hours): clear dose-response relationship
HO-1 mRNA levels in liver (HO-1 mRNA; highest doses, 24 hours): slightly elevated
